Test results from PubChem BioAssay AID248 (DTP/NCI, 2004).
Several values for one entry are separate records, joined by “and”; a condition that tells them apart may be missing. Identical values can stand only once. Inconclusive results and toxic doses are left out. Rule as the data show it: active = T/C of 150% or more; inactive = T/C below 125%.

System: L1210 leukemia ip in BDF1 mice, survival T/C
Assay: NCI In Vivo Anticancer Drug Screen. Data for tumor model L1210 Leukemia (intraperitoneal) in B6D2F1 (BDF1) mice
Conditions: endpoint: mean survival time, higher = longer survival
Method in brief: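 Transplanted-tumor mice were given test agent; controls received vehicle only. Survival readings from the two groups were divided (treated over control).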

[1] = dose: 100.0 mg/kg/injection, schedule: Q04DX003 (ip), vehicle: Klucel (hydroxypropylcellulose) (HPC)
[2] = dose: 100.0 mg/kg/injection, schedule: Q01DX009 (ip), vehicle: Klucel (hydroxypropylcellulose) (HPC)
[3] = dose: 200.0 mg/kg/injection, schedule: Q01DX009 (ip), vehicle: Klucel (hydroxypropylcellulose) (HPC)
[4] = dose: 400.0 mg/kg/injection, schedule: Q01DX009 (ip), vehicle: Klucel (hydroxypropylcellulose) (HPC)
[5] = dose: 400.0 mg/kg/injection, schedule: Q04DX002 (ip), vehicle: saline with Tween-80
[6] = dose: 100.0 mg/kg/injection, schedule: Q04DX003 (ip), vehicle: saline with Tween-80

Measured: T/C

CC(OC(=O)CCN1CC1)C1CC1 (centres undefined)
inactive: dose: 2.5 mg/kg/injection, schedule: Q01DX009 (ip), vehicle: Klucel (hydroxypropylcellulose) (HPC) 103 % of control | dose: 5.0 mg/kg/injection, schedule: Q01DX009 (ip), vehicle: Klucel (hydroxypropylcellulose) (HPC) 102 % of control | dose: 10.0 mg/kg/injection, schedule: Q01DX009 (ip), vehicle: Klucel (hydroxypropylcellulose) (HPC) 100 % of control | dose: 20.0 mg/kg/injection, schedule: Q01DX009 (ip), vehicle: Klucel (hydroxypropylcellulose) (HPC) 101 % of control | dose: 20.0 mg/kg/injection, schedule: Q04DX003 (ip), vehicle: Klucel (hydroxypropylcellulose) (HPC) 103 % of control | dose: 40.0 mg/kg/injection, schedule: Q04DX003 (ip), vehicle: Klucel (hydroxypropylcellulose) (HPC) 93 % of control | dose: 80.0 mg/kg/injection, schedule: Q04DX003 (ip), vehicle: Klucel (hydroxypropylcellulose) (HPC) 101 % of control | [1] 87 % of control

CCCCCCCCCCCCCC(=O)N(CCC)CCC
inactive: dose: 100.0 mg/kg/injection, schedule: Q01DX001 (ip), vehicle: carboxymethylcellulose (CMC) 96 % of control | dose: 100.0 mg/kg/injection, schedule: Q01DX009 (ip), vehicle: carboxymethylcellulose (CMC) 94 % of control and 110 % of control | dose: 100.0 mg/kg/injection, schedule: Q04DX003 (ip), vehicle: carboxymethylcellulose (CMC) 95 % of control | dose: 200.0 mg/kg/injection, schedule: Q01DX001 (ip), vehicle: carboxymethylcellulose (CMC) 93 % of control | dose: 200.0 mg/kg/injection, schedule: Q01DX009 (ip), vehicle: carboxymethylcellulose (CMC) 98 % of control and 103 % of control | dose: 200.0 mg/kg/injection, schedule: Q04DX003 (ip), vehicle: carboxymethylcellulose (CMC) 95 % of control | dose: 400.0 mg/kg/injection, schedule: Q01DX001 (ip), vehicle: carboxymethylcellulose (CMC) 91 % of control | dose: 400.0 mg/kg/injection, schedule: Q04DX003 (ip), vehicle: carboxymethylcellulose (CMC) 93 % of control

Clc1ccc(NC2=NCCS2)cc1
inactive: [2] 104 % of control | [3] 100 % of control | [4] 93 % of control

NNc1ccc(-c2ccccc2)cc1
inactive: dose: 75.0 mg/kg/injection, schedule: Q01DX001 (ip), vehicle: carboxymethylcellulose (CMC) 95 % of control | dose: 150.0 mg/kg/injection, schedule: Q01DX001 (ip), vehicle: carboxymethylcellulose (CMC) 92 % of control | dose: 300.0 mg/kg/injection, schedule: Q01DX001 (ip), vehicle: carboxymethylcellulose (CMC) 97 % of control

Cc1ccc(C)c(NC(=O)c2ccccc2Cl)c1
inactive: [2] 115 % of control | [1] 102 % of control | [3] 120 % of control | dose: 200.0 mg/kg/injection, schedule: Q04DX003 (ip), vehicle: Klucel (hydroxypropylcellulose) (HPC) 100 % of control | [4] 120 % of control | dose: 400.0 mg/kg/injection, schedule: Q04DX003 (ip), vehicle: Klucel (hydroxypropylcellulose) (HPC) 97 % of control

Cn1cccc1/C=N/NC(N)=O
inactive: dose: 100.0 mg/kg/injection, schedule: Q04DX002 (ip), vehicle: Klucel (hydroxypropylcellulose) (HPC) 104 % of control | dose: 200.0 mg/kg/injection, schedule: Q04DX002 (ip), vehicle: Klucel (hydroxypropylcellulose) (HPC) 104 % of control | dose: 400.0 mg/kg/injection, schedule: Q04DX002 (ip), vehicle: Klucel (hydroxypropylcellulose) (HPC) 98 % of control

CC(C)Cn1cnc2c(SCc3ccc(Cl)cc3Cl)nc(N)nc21
inactive: dose: 100.0 mg/kg/injection, schedule: Q01DX009 (ip), vehicle: saline 100 % of control | dose: 100.0 mg/kg/injection, schedule: Q04DX003 (ip), vehicle: acetone 92 % of control | dose: 200.0 mg/kg/injection, schedule: Q01DX009 (ip), vehicle: saline 102 % of control | dose: 200.0 mg/kg/injection, schedule: Q04DX003 (ip), vehicle: acetone 91 % of control | dose: 400.0 mg/kg/injection, schedule: Q01DX009 (ip), vehicle: saline 97 % of control | dose: 400.0 mg/kg/injection, schedule: Q04DX003 (ip), vehicle: acetone 89 % of control

CC[n+]1ccc2cc(OC)c(OC)cc2c1Cc1ccc(OC)c(OC)c1
inactive: dose: 25.0 mg/kg/injection, schedule: Q01DX009 (ip), vehicle: saline 94 % of control | dose: 50.0 mg/kg/injection, schedule: Q01DX009 (ip), vehicle: saline 115 % of control | dose: 100.0 mg/kg/injection, schedule: Q04DX003 (ip), vehicle: saline 98 % of control

CCC(COS(=O)(=O)c1ccc(C)cc1)[N+](=O)[O-] (centres undefined)
inactive: dose: 25.0 mg/kg/injection, schedule: Q04DX003 (ip), vehicle: Klucel (hydroxypropylcellulose) (HPC) 112 % of control | dose: 50.0 mg/kg/injection, schedule: Q04DX003 (ip), vehicle: Klucel (hydroxypropylcellulose) (HPC) 96 % of control | [1] 86 % of control

CC/C=N\N=C(N)N
inactive: dose: 15.0 mg/kg/injection, schedule: Q01DX Z (ip), vehicle: saline 101 % of control | dose: 30.0 mg/kg/injection, schedule: Q01DX Z (ip), vehicle: saline 106 % of control | dose: 60.0 mg/kg/injection, schedule: Q01DX Z (ip), vehicle: saline 100 % of control | dose: 120.0 mg/kg/injection, schedule: Q01DX010 (oral), vehicle: saline 94 % of control | dose: 120.0 mg/kg/injection, schedule: Q01DX Z (ip), vehicle: saline 100 % of control | dose: 240.0 mg/kg/injection, schedule: Q01DX010 (oral), vehicle: saline 98 % of control | dose: 240.0 mg/kg/injection, schedule: Q01DX Z (ip), vehicle: saline 95 % of control

O=C1OCN(c2ccccc2)/C1=C/c1ccccc1
inactive: dose: 100.0 mg/kg/injection, schedule: Q01DX001 (ip), vehicle: saline 89 % of control | dose: 200.0 mg/kg/injection, schedule: Q01DX001 (ip), vehicle: saline 94 % of control | dose: 400.0 mg/kg/injection, schedule: Q01DX001 (ip), vehicle: saline 93 % of control

N#Cc1c(Cl)nsc1Cl
inactive: [2] 97 % of control | [3] 102 % of control

CCOC(=O)/C(C#N)=C/c1cccn1Cc1ccc2ccccc2c1
inactive: dose: 100.0 mg/kg/injection, schedule: Q04DX002 (ip), vehicle: saline with Tween-80 101 % of control | dose: 200.0 mg/kg/injection, schedule: Q04DX002 (ip), vehicle: saline with Tween-80 90 % of control | [5] 90 % of control

CN(NC(=O)CC(=O)NN(C)C(=S)c1ccc(Cl)cc1)C(=S)c1ccc(Cl)cc1
inactive: dose: 25.0 mg/kg/injection, schedule: Q01DX009 (ip), vehicle: gum acacia 96 % of control | dose: 25.0 mg/kg/injection, schedule: Q04DX003 (ip), vehicle: gum acacia 92 % of control | dose: 50.0 mg/kg/injection, schedule: Q01DX009 (ip), vehicle: gum acacia 91 % of control | dose: 50.0 mg/kg/injection, schedule: Q04DX003 (ip), vehicle: gum acacia 93 % of control | dose: 100.0 mg/kg/injection, schedule: Q01DX009 (ip), vehicle: gum acacia 89 % of control | dose: 100.0 mg/kg/injection, schedule: Q04DX003 (ip), vehicle: gum acacia 90 % of control | dose: 200.0 mg/kg/injection, schedule: Q04DX003 (ip), vehicle: gum acacia 86 % of control | dose: 400.0 mg/kg/injection, schedule: Q04DX003 (ip), vehicle: gum acacia 92 % of control

BrC12CC3CC(CC(C3)C1)C2
inactive: [6] 98 % of control | dose: 200.0 mg/kg/injection, schedule: Q04DX003 (ip), vehicle: saline with Tween-80 102 % of control | dose: 400.0 mg/kg/injection, schedule: Q04DX003 (ip), vehicle: saline with Tween-80 98 % of control

[Si]c1ccc(-c2ccccc2)cc1
inactive: dose: 25.6 mg/kg/injection, schedule: Q04DX002 (ip), vehicle: saline with Tween-80 101 % of control | dose: 64.0 mg/kg/injection, schedule: Q04DX002 (ip), vehicle: saline with Tween-80 97 % of control | [6] 87 % of control | dose: 160.0 mg/kg/injection, schedule: Q04DX002 (ip), vehicle: saline with Tween-80 87 % of control | [5] 90 % of control
